Patent US20050288270A1, “New aminopyridine derivatives and their use as pharmaceuticals” (Pfizer Inc, priority 2004, published 2005)

Legend:
dopamine D3 receptor = dopamine D3 receptor (Homo sapiens, UniProt P35462); experiment: D3/D2 agonist assay, functional potency at D3 receptor; type: cell-based
Description: (§1) Activity at the dopamine D3 receptor may be determined using the methods described in WO 2004/052372. […] Selectivity is calculated as the D2 EC50 value divided by the D3 EC50 value. Where the value of the D2 EC50 was >10000, a figure of 10000 was used in the calculation.

D2 receptor = D2 receptor (Homo sapiens, UniProt P14416); experiment: D3/D2 agonist assay, functional response at D2 receptor; type: cell-based; conditions: at 1000 nM; relative to the maximal effect of pramipexole
D2 receptor, sequence (P14416 whole entry): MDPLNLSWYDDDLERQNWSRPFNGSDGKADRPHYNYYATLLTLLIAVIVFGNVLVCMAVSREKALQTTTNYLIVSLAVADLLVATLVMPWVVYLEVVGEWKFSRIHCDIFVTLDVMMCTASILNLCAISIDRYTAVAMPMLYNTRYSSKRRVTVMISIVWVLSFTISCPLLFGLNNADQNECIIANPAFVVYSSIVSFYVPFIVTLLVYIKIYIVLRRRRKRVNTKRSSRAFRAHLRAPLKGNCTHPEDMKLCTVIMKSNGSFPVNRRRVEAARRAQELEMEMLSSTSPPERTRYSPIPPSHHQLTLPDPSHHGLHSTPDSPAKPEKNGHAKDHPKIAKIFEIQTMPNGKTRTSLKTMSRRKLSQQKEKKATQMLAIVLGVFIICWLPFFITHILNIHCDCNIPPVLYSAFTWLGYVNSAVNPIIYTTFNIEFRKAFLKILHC
Description: as §1

dopamine D3 receptor, sequence (P35462 whole entry): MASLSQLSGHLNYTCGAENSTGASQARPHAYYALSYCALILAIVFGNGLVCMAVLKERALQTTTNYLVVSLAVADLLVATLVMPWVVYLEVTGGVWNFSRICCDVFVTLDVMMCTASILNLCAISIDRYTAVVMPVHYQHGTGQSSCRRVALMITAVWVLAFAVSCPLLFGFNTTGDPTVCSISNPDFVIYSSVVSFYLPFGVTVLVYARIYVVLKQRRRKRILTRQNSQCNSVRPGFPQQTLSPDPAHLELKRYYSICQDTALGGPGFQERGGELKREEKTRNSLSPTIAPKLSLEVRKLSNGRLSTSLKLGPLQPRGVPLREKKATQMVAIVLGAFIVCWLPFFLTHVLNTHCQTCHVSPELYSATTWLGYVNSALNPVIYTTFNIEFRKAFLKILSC

## CCCN1CC(c2ccc(N)nc2)OCC1CO (single isomer, unassigned) [Example 14, [6-(6-Aminopyridin-3-yl)-4-propylmorpholin-3-yl]methanol]
Dopamine D3 receptor; agonist, read-out: functional potency at the D3 receptor, expressed as an EC50
  EC50: 20 nM
Dopamine D3 receptor; relative to the maximal effect of standard agent pramipexole, read-out: Emax (maximal response value)
  Emax: 98%
D2 receptor
  response against the D2 receptor: 22%
